From patent US20250129021A1, “SMALL MOLECULE PROTEIN SYNTHESIS MODULATORS” (Interdict Bio, Inc., priority 2023, published 2025)
pIC50: −log10 of the molar value.

How the values were obtained:
Format in all cases: biochemical
MYC = assay: In vitro transcription-translation (IVTT) assay, MYC reporter; conditions: IVTT assay, HeLa S3 lysate, MYC reporter, normalized sfGFP/mCherry ratio; half-log dilutions 30 μM-0.1 μM, 2 hrs at 30° C.
Procedure, shortened: (§1)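 Reporter: mCherry, P2A, then 3×FLAG-target peptide-sfGFP fusion, IRES-initiated; HeLa S3 lysate IVTT; cpd dilutions 30 μM−0.1 μM half-log in 100% DMSO (dilution-plate conc); DNA added last; 2 h, 30° C; PBS quench.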

CCND1 = assay: In vitro transcription-translation (IVTT) assay, CCND1 reporter; conditions: IVTT assay, HeLa S3 lysate, sfGFP/mCherry ratio
Procedure, shortened: as §1

MCL-1 = assay: In vitro transcription-translation (IVTT) assay, MCL-1 reporter; conditions: IVTT assay, HeLa S3 lysate, sfGFP/mCherry ratio; read-out: MCL1 IC50
Procedure, shortened: as §1

CCNTB1 = assay: In vitro transcription-translation (IVTT) assay, CCNTB1 reporter; conditions: HeLa S3 lysate, sfGFP/mCherry ratio
Method: In vitro transcription-translation assay setup: Each assay includes a master mix containing lysate and shared components, a 96-well plate containing compound titrations for testing, a 96-well DNA plate with reporter constructs to be tested, 96-well skirted PCR plates, and 96-well flat-bottom, black, fluorescent assay plates. Reaction materials setup: (A) Master mix—15 mL conical tube (3 mL of HeLa S3 Lysate described above; 0.6 mL of ThermoFisher Accessory Proteins (#88882); 1.2 ml of ThermoFisher Reaction Mix (#88882); 0.54 mL of nuclease-free Water); (B) 96-Well Master Mix+Compound Plate (Half-log dilutions (30 μM−0.1 μM) of 4 compounds of interest are prepared in 100% DMSO); 96-Well DNA Plate (Five DNA constructs are plated into single columns within the plate. Row 1 of the column contains nuclease free H2O, all other wells contain 110 ng/μL plasmid DNA). Reactions are started by mixing 155 μL of master mix and 3.5 μL of compound serial dilutions, then 9.1 μL of master mix+compound mixture is aliquoted across 5 96-well plates. Reactions begin with final addition of 2 μL of DNA for a 11.1 μL reaction volume in each well. The entire plate is sealed, and incubated for 2 hrs at 30° C. After 2 hrs, quench the assay using 45 μL of PBS, and transfer 50 μL to a flat-bottom black microplate Quantify the sfGFP and mCherry signals from each well on each plate, taking 3 reads of each plate, and perform data analysis below.
In vitro transcription-translation assay data analysis: Each plate is read three times in channels for both sfGFP and mCherry signals. The average signal across these 3 reads is then calculated for further analysis. Control wells containing no DNA reporter are subtracted from reporter wells in the same column to remove auto-fluorescence of the lysate. Then, the ratio of sfGFP/mCherry is calculated per well, and these ratios are averaged across the triplicate experiments on the same plate. Finally, the ratio of each titration concentration is normalized to the no drug control to create the normalized stalling metric. The error on this measurement is determined by propagating error through the averaging and normalization steps. Values are plotted and fit for IC50 determination for each test sequence and titration of compound.

pIC50 (CCND1)	pIC50 (MCL-1)	pIC50 (CCNTB1)	SMILES	pIC50 (MYC)
4.70 to 5.00	> 5.00	> 5.00	O=C(NCC[C@@H]1CCCN1)O[C@@H]1[C@@H](O)CN[C@@H]1Cc1ccc(-c2ccc3c(c2)CC(F)(F)C3)cc1 [V191961, (2R,3S,4S)-2-{[4-(2,2-difluoro-1,3-dihydroinden-5-yl)phenyl]methyl}-4-hydroxypyrrolidin-3-yl N-{2-[(2S)-pyrrolidin-2-yl]ethyl}carbamate]	4.70 to 5.00
< 4.52	4.52 to 4.70	4.70 to 5.00	COc1ccc(C[C@H]2NC[C@H](O)[C@H]2OC(=O)N[C@@H](C)c2ccccc2)cc1 [V191971, (2R,3S,4S)-4-hydroxy-2-[(4-methoxyphenyl)methyl]pyrrolidin-3-yl N-[(1S)-1-phenylethyl]carbamate]	4.70 to 5.00
4.52 to 4.70	4.70 to 5.00	> 5.00	O=C(NCC[C@H]1CCCN1)O[C@@H]1[C@@H](O)CN[C@@H]1Cc1ccc(-c2ccc3c(c2)CC(F)(F)C3)cc1 [V192040, (2R,3S,4S)-2-{[4-(2,2-difluoro-1,3-dihydroinden-5-yl)phenyl]methyl}-4-hydroxypyrrolidin-3-yl N-{2-[(2R)-pyrrolidin-2-yl]ethyl}carbamate]	4.70 to 5.00
4.70 to 5.00	> 5.00	> 5.00	COc1ccc(C[C@H]2NC[C@H](O)[C@H]2OC(=O)NCC[C@@]2(C)CCCN2)cc1 [V192041, (2R,3S,4S)-4-hydroxy-2-(4-methoxybenzyl)pyrrolidin-3-yl (2-((R)-2-methylpyrrolidin-2-yl)ethyl)carbamate]	> 5.00
< 4.52	< 4.52	4.52 to 4.70	COc1ccc(C[C@H]2NC[C@H](O)[C@H]2OC(=O)NCC[C@H]2CCCN2C)cc1 [V192042, (2R,3S,4S)-4-hydroxy-2-[(4-methoxyphenyl)methyl]pyrrolidin-3-yl N-{2-[(2R)-1-methylpyrrolidin-2-yl]ethyl}carbamate]	< 4.52
< 4.52	< 4.52	< 4.52	COc1ccc(C[C@H]2NC[C@H](O)[C@H]2OC(=O)NCC[C@H]2CCC3(CC3)N2)cc1 [V192043, (2R,3S,4S)-4-hydroxy-2-[(4-methoxyphenyl)methyl]pyrrolidin-3-yl N-{2-[(5R)-4-azaspiro[2.4]heptan-5-yl]ethyl}carbamate]	< 4.52
4.70 to 5.00	> 5.00	> 5.00	COc1ccc(C[C@H]2NC[C@H](O)[C@H]2OC(=O)NCC[C@H]2CCCNC2)cc1 [V192046, (2R,3S,4S)-4-hydroxy-2-[(4-methoxyphenyl)methyl]pyrrolidin-3-yl N-{2-[(3R)-piperidin-3-yl]ethyl}carbamate]	> 5.00
> 5.00	> 5.00	> 5.00	O=C(NCC[C@H]1CCCN1)O[C@@H]1[C@@H](O)CN[C@@H]1Cc1ccc(-c2cnco2)cc1 [V192048, (2R,3S,4S)-4-hydroxy-2-{[4-(1,3-oxazol-5-yl)phenyl]methyl}pyrrolidin-3-yl N-{2-[(2R)-pyrrolidin-2-yl]ethyl}carbamate]	> 5.00
< 4.52	4.70 to 5.00	4.70 to 5.00	O=C(NCCC1CCNCC1)O[C@@H]1[C@@H](O)CN[C@@H]1Cc1ccc(-c2ccccc2)cc1 [V192050, (2R,3S,4S)-2-{[1,1′-biphenyl]-4-ylmethyl}-4-hydroxypyrrolidin-3-yl N-[2-(piperidin-4-yl)ethyl]carbamate]	4.70 to 5.00
> 5.00	> 5.00	> 5.00	O=C(NCCC1CCNCC1)O[C@@H]1[C@@H](O)CN[C@@H]1Cc1ccc(-c2ccc(F)c(F)c2)cc1 [V192051, (2R,3S,4S)-2-({3′,4′-difluoro-[1,1′-biphenyl]-4-yl}methyl)-4-hydroxypyrrolidin-3-yl N-[2-(piperidin-4-yl)ethyl]carbamate]	> 5.00
< 4.52	< 4.52	< 4.52	O=C(NCCC1CCNCC1)O[C@@H]1[C@@H](O)CN[C@@H]1Cc1ccc(-c2ccc(C(F)(F)F)cc2)cc1 [V192052, (2R,3S,4S)-4-hydroxy-2-{[4′-(trifluoromethyl)-[1,1′-biphenyl]-4-yl]methyl}pyrrolidin-3-yl N-[2-(piperidin-4-yl)ethyl]carbamate]	< 4.52
< 4.52	4.52 to 4.70	4.70 to 5.00	O=C(NCCC1CCNCC1)O[C@@H]1[C@@H](O)CN[C@@H]1Cc1ccc(-c2ccc3c(c2)CC(F)(F)C3)cc1 [V192053, (2R,3S,4S)-2-{[4-(2,2-difluoro-1,3-dihydroinden-5-yl)phenyl]methyl}-4-hydroxypyrrolidin-3-yl N-[2-(piperidin-4-yl)ethyl]carbamate]	< 4.52
> 5.00	> 5.00	> 5.00	O=C(NCc1ccc2c(c1)CCNC2)O[C@@H]1[C@@H](O)CN[C@@H]1Cc1ccc(-c2cnco2)cc1 [V192056, (2R,3S,4S)-4-hydroxy-2-{[4-(1,3-oxazol-5-yl)phenyl]methyl}pyrrolidin-3-yl N-(1,2,3,4-tetrahydroisoquinolin-6-ylmethyl)carbamate]	> 5.00
< 4.52	< 4.52	4.52 to 4.70	O=C(NCc1ccc2c(c1)CCNC2)O[C@@H]1[C@@H](O)CN[C@@H]1Cc1ccc(-c2ccc(C(F)(F)F)cc2)cc1 [V192058, (2R,3S,4S)-4-hydroxy-2-{[4′-(trifluoromethyl)-[1,1′-biphenyl]-4-yl]methyl}pyrrolidin-3-yl N-(1,2,3,4-tetrahydroisoquinolin-6-ylmethyl)carbamate]	< 4.52
< 4.52	< 4.52	< 4.52	O=C(NCc1ccc2c(c1)CCNC2)O[C@@H]1[C@@H](O)CN[C@@H]1Cc1ccc(-c2ccc(S(F)(F)(F)(F)F)cc2)cc1 [V192059, (2R,3S,4S)-4-hydroxy-2-{[4′-(pentafluoro-lambda6-sulfanyl)-[1,1′-biphenyl]-4-yl]methyl}pyrrolidin-3-yl N-(1,2,3,4-tetrahydroisoquinolin-6-ylmethyl)carbamate]	< 4.52
4.52 to 4.70	> 5.00	> 5.00	O=C(NCc1ccc2c(c1)CCNC2)O[C@@H]1[C@@H](O)CN[C@@H]1Cc1ccc(-c2ccc3c(c2)CC(F)(F)C3)cc1 [V192060, (2R,3S,4S)-2-{[4-(2,2-difluoro-1,3-dihydroinden-5-yl)phenyl]methyl}-4-hydroxypyrrolidin-3-yl N-(1,2,3,4-tetrahydroisoquinolin-6-ylmethyl)carbamate]	> 5.00
> 5.00	> 5.00	4.70 to 5.00	COc1ccc(C[C@H]2NC[C@H](O)[C@H]2OC(=O)NCc2ccnc(N3CC(F)(F)C3)c2)cc1 [V192066, (2R,3S,4S)-4-hydroxy-2-[(4-methoxyphenyl)methyl]pyrrolidin-3-yl N-{[2-(3,3-difluoroazetidin-1-yl)pyridin-4-yl]methyl}carbamate]	> 5.00
> 5.00	> 5.00	4.70 to 5.00	COc1ccc(C[C@H]2NC[C@H](O)[C@H]2OC(=O)NCc2ccnc(N3CC(O)C3)c2)cc1 [V192067, (2R,3S,4S)-4-hydroxy-2-(4-methoxybenzyl)pyrrolidin-3-yl ((2-(3-hydroxyazetidin-1-yl)pyridin-4-yl)methyl)carbamate]	> 5.00
4.70 to 5.00	> 5.00	> 5.00	COc1ccc(C[C@H]2NC[C@H](O)[C@H]2OC(=O)NCc2ccnc(N3CC4(CCC4)C3)c2)cc1 [V192068, (2R,3S,4S)-4-hydroxy-2-[(4-methoxyphenyl)methyl]pyrrolidin-3-yl N-[(2-{2-azaspiro[3.3]heptan-2-yl}pyridin-4-yl)methyl]carbamate]	> 5.00
> 5.00	> 5.00	> 5.00	COc1ccc(C[C@H]2NC[C@H](O)[C@H]2OC(=O)NCc2ccc(C3(N)CC3)cc2)cc1 [V192069, (2R,3S,4S)-4-hydroxy-2-[(4-methoxyphenyl)methyl]pyrrolidin-3-yl N-{[4-(1-aminocyclopropyl)phenyl]methyl}carbamate]	> 5.00
